Measurements as given in patent publication US20230022724A1, “NOVEL IMIDAZOPYRAZINE DERIVATIVES” (Hoffmann-La Roche Inc., priority 2018, published 2023).
Structures can show the parent of a compound that is named as a salt. Where two headings read alike, the source gives them in different places.

System: Acinetobacter baumannii ATCC17978
Experiment: Antimicrobial susceptibility testing: 90% growth inhibitory concentration (IC90) determination
Type: cell-based
Settings: read-out: ATCC17978 IC90
Protocol: The in vitro antimicrobial activity of the compounds was determined according to the following procedure:
The assay used a 10-points Iso-Sensitest broth medium to measure quantitatively the in vitro activity of the compounds against Acinetobacter baumannii ATCC17978 and Acinetobacter baumannii ATCC17961.
Stock compounds in DMSO were serially twofold diluted (e.g. range from 50 to 0.097 μM final concentration) in 384 wells microtiter plates and inoculated with 49 μl the bacterial suspension in Iso-Sensitest medium to have a final cell concentration of ˜5×10^(5) CFU/ml in a final volume/well of 50 ul/well. Microtiter plates were incubated at 35±2° C.
Bacterial cell growth was determined with the measurement of optical density at λ=600 nm each 20 minutes over a time course of 16 h. Growth inhibition was calculated during the logarithmic growth of the bacterial cells with determination of the concentration inhibiting 50% (IC50) and 90% (IC90) of the growth.
Table 1 provides the 90% growth inhibitory concentrations (IC90) in micromoles per liter of the compounds of present invention obtained against the strain Acinetobacter baumannii ATCC17978 and Acinetobacter baumannii ATCC17961.

[1] = Acinetobacter baumannii, ATCC17978, 16 h, 90% growth inhibitory concentration, Acinetobacter baumannii ATCC17978, Iso-Sensitest broth, OD 600 nm over 16 h
[2] = Acinetobacter baumannii, ATCC17978, 16 h

| Compound | IC90 [1] [nM] | IC90 [2] [nM] | further results |
| --- | --- | --- | --- |
| N#CCOc1ccc(-c2cnc3c(Nc4ccc(C(=O)N5CCN(c6ncccn6)CC5)c(Cl)c4)nccn23)c(F)c1F [Example 22, 2-[4-[8-[3-chloro-4-(4-pyrimidin-2-ylpiperazine-1-carbonyl)anilino]imidazo[1,2-a]pyrazin-3-yl]-2,3-difluoro-phenoxy]acetonitrile] | 690 |  |  |
| Cn1cnnc1C1CCN(C(=O)c2ccc(Nc3nccn4c(-c5ccc(OCC#N)c(F)c5F)cnc34)cc2Cl)CC1 [Example 23, 2-[4-[8-[3-chloro-4-[4-(4-methyl-1,2,4-triazol-3-yl)piperidine-1-carbonyl]anilino]imidazo[1,2-a]pyrazin-3-yl]-2,3-difluoro-phenoxy]acetonitrile; 2,2,2-trifluoroacetic acid] | 160 |  |  |
| N#CCOc1ccc(-c2cnc3c(Nc4ccc(C(=O)N5CCC(n6cnnc6)CC5)c(Cl)c4)nccn23)c(F)c1F [Example 24, 2-[4-[8-[3-chloro-4-[4-(1,2,4-triazol-4-yl)piperidine-1-carbonyl]anilino]imidazo[1,2-a]pyrazin-3-yl]-2,3-difluoro-phenoxy]acetonitrile] | 150 |  |  |
| CN(C)CCNC1CCN(C(=O)c2ccc(Nc3nccn4c(-c5ccc(OCC#N)c(F)c5Cl)cnc34)cc2Cl)CC1 [Example 25, 2-[3-chloro-4-[8-[3-chloro-4-[4-[2-(dimethylamino)ethylamino]piperidine-1-carbonyl]anilino]imidazo[1,2-a]pyrazin-3-yl]-2-fluorophenoxy]acetonitrile; 2,2,2-trifluoroacetic acid] | 79 |  |  |
| N#CCOc1ccc(-c2cnc3c(Nc4ccc(C(=O)N5CCN(CCN6CCCC6)CC5)c(Cl)c4)nccn23)c(Cl)c1F [Example 26] | 86 |  |  |
| N#Cc1cc(Nc2nccn3c(-c4ccc(OC(F)F)cc4)cnc23)ccc1C(=O)N1CCC(CN)CC1 [Example 27, 2-(4-(aminomethyl)piperidine-1-carbonyl)-5-((3-(4-(difluoromethoxy)phenyl)imidazo[1,2-a]pyrazin-8-yl)amino)benzonitrile] | 1500 |  |  |
| COc1ccc(-c2cnc3c(Nc4ccc(C(=O)N5CCC(O)(CCN(C)C)CC5)c(Cl)c4)nccn23)cc1F [Example 28, (2-chloro-4-((3-(3-fluoro-4-methoxyphenyl)imidazo[1,2-a]pyrazin-8-yl)amino)phenyl)(4-(2-(dimethylamino)ethyl)-4-hydroxypiperidin-1-yl)methanone] | 140 |  |  |
| N#CCOc1ccc(-c2cnc3c(Nc4ccc(C(=O)N5CCN(C(=O)[C@@H]6C[C@@H](O)CN6)CC5)c(Cl)c4)nccn23)c(F)c1F [Example 34, 2-[4-[8-[3-chloro-4-[4-[(2S,4R)-4-hydroxypyrrolidine-2-carbonyl]piperazine-1-carbonyl]anilino]imidazo [1,2-a]pyrazin-3-yl]-2,3-difluroo-phenoxy]acetonitrile formate] |  | 31 |  |
| CNCC(=O)N1CCN(C(=O)c2ccc(Nc3nccn4c(-c5ccc(OC)c(F)c5)cnc34)cc2Cl)CC1 [Example 40, 1-(4-(2-chloro-4-((3-(3-fluoro-4-methoxyphenyl)imidazo [1,2-a]pyrazin-8-yl)amino)benzoyl)piperazin-1-yl)-2-(methylamino)ethanone] |  |  | IC90 (90% growth inhibitory concentration, Acinetobacter baumannii ATCC17978, Iso-Sensitest broth, OD 600 nm over 16 h): 150 nM |
| CC(C#N)Oc1ccc(-c2cnc3c(Nc4ccc(C(=O)N5CCN(CCN(C)C)CC5)c(Cl)c4)nccn23)c(F)c1F (stereo not drawn) [Example 41, 2-[4-[8-[3-chloro-4-[4-[2-(dimethylamino)ethyl]piperazine-1-carbonyl]anilino]imi-dazo[1,2-a]pyrazin-3-yl]-2,3-difluoro-phenoxy]propanenitrile formate] |  | 130 |  |
| CC(C#N)Oc1ccc(-c2cnc3c(Nc4ccc(C(=O)N5CCN(CCCN(C)C)CC5)c(Cl)c4)nccn23)c(F)c1F (stereo not drawn) [Example 42, 2-[4-[8-[3-chloro-4-[4-[3-(dimethylamino)pro-pyl]piperazine-1-carbonyl]anilino]imi-dazo[1,2-a]pyrazin-3-yl]-2,3-difluoro-phenoxy]propanenitrile] |  | 200 |  |
| CNCCNC(=O)C1CCN(C(=O)c2ccc(Nc3nccn4c(-c5ccc(OC)c(F)c5)cnc34)cc2Br)CC1 [Example 44, 1-(2-bromo-4-((3-(3-fluoro-4-methoxyphenyl)imidazo[1,2-a]pyrazin-8-yl)amino)benzoyl)-N-(2-(methylamino)ethyl)piperidine-4-carboxamide; Formic Acid] |  | 300 |  |
| N#CCOc1ccc(-c2cnc3c(Nc4ccc(C(=O)N5CCC(C(=O)N6CCN[C@H](C(=O)O)C6)CC5)c(Cl)c4)nccn23)c(F)c1F [Example 45, (2S)-4-[1-[2-chloro-4-[[3-[4-(cyanomethoxy)-2,3-difluoro-phenyl]imidazo[1,2-a]pyrazin-8-yl]amino]benzoyl]piperidine-4-carbonyl]piperazine-2-carboxylic Acid; Formic Acid] |  | 880 |  |
| N#CCOc1ccc(-c2cnc3c(Nc4ccc(C(=O)N5CCC(C(=O)N6CCN[C@@H](C(=O)O)C6)CC5)c(Cl)c4)nccn23)c(F)c1F [Example 46, (R)-4-(1-(2-chloro-4-((3-(4-(cyanomethoxy)-2,3-difluorophenyl)imidazo[1,2-a]pyrazin-8-yl)amino)benzoyl)piperidine-4-carbonyl)piperazine-2-carboxylic Acid; Formic Acid] |  | 890 |  |
| N#CCOc1ccc(-c2cnc3c(Nc4ccc(C(=O)N5CCN(CCN6CCC(C(=O)O)C6)CC5)c(Cl)c4)nccn23)c(F)c1F (stereo not drawn) [Example 47, 1-[2-[4-[2-chloro-4-[[3-[4-(cyanomethoxy)-2,3-difluoro-phenyl]imidazo[1,2-a]pyrazin-8-yl]amino]benzoyl]piperazin-1-yl]ethyl]pyrrolidine-3-carboxylic Acid Trifluoroacetate] |  | 430 |  |
| COc1ccc(-c2cnc3c(Nc4ccc(C(=O)N5CCC(C(=O)N6CCOC(CN)C6)CC5)c(Cl)c4)nccn23)cc1F (stereo not drawn) [Example 52, [4-[2-(aminomethyl)morpholine-4-carbonyl]piperidin-1-yl]-[2-chloro-4-[[3-(3-fluoro-4-methoxyphenyl)imidazo[1,2-a]pyrazin-8-yl]amino]phenyl]methanone; hydrochloride] |  | 88 |  |

Further lines, with some results ahead:

| IC90 [1] [nM] | Compound | IC90 [2] [nM] | further results |
| --- | --- | --- | --- |
| 190 | N#CCOc1ccc(-c2cnc3c(Nc4ccc(C(=O)N5CCC(C(=O)N6CCNCC6CO)CC5)c(Cl)c4)nccn23)c(F)c1F (stereo not drawn) [Example 30, 2-[4-[8-[3-chloro-4-[4-[2-(hydroxymethyl)piperazine-1-carbonyl]piperidine-1-carbonyl]anilino]imidazo[1,2-a]pyrazin-3-yl]-2,3-difluoro-phenoxy]acetonitrile trifluoroacetate] |  |  |
| 320 | N#CCOc1ccc(-c2cnc3c(Nc4ccc(C(=O)N5CCC(C(=O)N6CCNCC6CO)CC5)c(Cl)c4)nccn23)c(Cl)c1F (stereo not drawn) [Example 31, 2-[3-chloro-4-[8-[3-chloro-4-[4-[2-(hydroxymethyl)piperazine-1-carbonyl]piperidine-1-carbonyl]anilino]imidazo[1,2-a]pyrazin-3-yl]-2-fluoro-phenoxy]acetonitrile trifluoroacetate] |  |  |
| 300 | CNCCNC(=O)C1CCN(C(=O)c2ccc(Nc3nccn4c(-c5ccc(OCC#N)c(F)c5F)cnc34)cc2Cl)CC1 [Example 32, 1-[2-chloro-4-[[3-[4-(cyanomethoxy)-2,3-difluoro-phenyl]imidazo[1,2-a]pyrazin-8-yl]amino]benzoyl]-N-[2-(methylamino)ethyl]piperidine-4-carboxamide trifluoroacetate] |  |  |
| 41 | N#CCOc1ccc(-c2cnc3c(Nc4ccc(C(=O)N5CCN(C(=O)N6CCN[C@@H](CO)C6)CC5)c(Cl)c4)nccn23)c(F)c1F [Example 36, 2-[4-[8-[3-chloro-4-[4-[(3R)-3-(hydroxymethyl)piperazine-1-carbonyl]piperazine-1-carbonyl]anilino]imidazo[1,2-a]pyrazin-3-yl]-2,3-difluoro-phenoxy]acetonitrile] |  |  |
| 570 | COc1ccc(-c2cnc3c(Nc4ccc(C(=O)N5CCOCC5)cc4)nccn23)cc1Cl [Example 38, (4-((3-(3-chloro-4-methoxyphenyl)imidazo[1,2-a]pyrazin-8-yl)amino)phenyl)(morpholino)methanone] |  |  |
| 200 | COc1ccc(-c2cnc3c(Nc4ccc(C(=O)N5CCC(C(=O)N[C@@H]6CCNC6)CC5)c(Cl)c4)nccn23)c(F)c1F [Example 39, (R)-1-(2-chloro-4-((3-(2,3-difluoro-4-methoxyphe-nyl)imida-zo[1,2-a]pyrazin-8-yl)amino)benzoyl)-N-(pyrrolidin-3-yl)piperidine-4-carboxamide hydrochloride] |  |  |
| 140 | COc1ccc(-c2cnc3c(Nc4ccc(C(=O)N5CCN(CCNCCO)CC5)c(Cl)c4)nccn23)cc1F [Example 43, (2-Chloro-4-((3-(3-fluoro-4-methoxyphenyl)imidazo[1,2-a]pyrazin-8-yl)amino)phenyl)(4-(2-((2-hydroxyethyl)amino)ethyl)piperazin-1-yl)methanone] |  |  |
| 230 | NCC1CCN(C(=O)c2ccc(Nc3nccn4c(-c5ccc(OC(F)F)cc5)cnc34)cc2I)CC1 [Example 51, [4-(aminomethyl)piperidin-1-yl]-[4-[[3-[4-(difluoromethoxy)phenyl]imidazo[1,2-a]pyrazin-8-yl]amino]-2-iodophenyl]methanone; hydrochloride] |  |  |
